The compounds below were run against T1, FLT3 D835V (Homo sapiens, UniProt P36888, D835V) (assay: DiscoverX KINOMEscan active site-directed competition binding, FLT3 D835V). Conditions: Table 12; no ATP.
T1 sequence (P36888 27-993 D835V): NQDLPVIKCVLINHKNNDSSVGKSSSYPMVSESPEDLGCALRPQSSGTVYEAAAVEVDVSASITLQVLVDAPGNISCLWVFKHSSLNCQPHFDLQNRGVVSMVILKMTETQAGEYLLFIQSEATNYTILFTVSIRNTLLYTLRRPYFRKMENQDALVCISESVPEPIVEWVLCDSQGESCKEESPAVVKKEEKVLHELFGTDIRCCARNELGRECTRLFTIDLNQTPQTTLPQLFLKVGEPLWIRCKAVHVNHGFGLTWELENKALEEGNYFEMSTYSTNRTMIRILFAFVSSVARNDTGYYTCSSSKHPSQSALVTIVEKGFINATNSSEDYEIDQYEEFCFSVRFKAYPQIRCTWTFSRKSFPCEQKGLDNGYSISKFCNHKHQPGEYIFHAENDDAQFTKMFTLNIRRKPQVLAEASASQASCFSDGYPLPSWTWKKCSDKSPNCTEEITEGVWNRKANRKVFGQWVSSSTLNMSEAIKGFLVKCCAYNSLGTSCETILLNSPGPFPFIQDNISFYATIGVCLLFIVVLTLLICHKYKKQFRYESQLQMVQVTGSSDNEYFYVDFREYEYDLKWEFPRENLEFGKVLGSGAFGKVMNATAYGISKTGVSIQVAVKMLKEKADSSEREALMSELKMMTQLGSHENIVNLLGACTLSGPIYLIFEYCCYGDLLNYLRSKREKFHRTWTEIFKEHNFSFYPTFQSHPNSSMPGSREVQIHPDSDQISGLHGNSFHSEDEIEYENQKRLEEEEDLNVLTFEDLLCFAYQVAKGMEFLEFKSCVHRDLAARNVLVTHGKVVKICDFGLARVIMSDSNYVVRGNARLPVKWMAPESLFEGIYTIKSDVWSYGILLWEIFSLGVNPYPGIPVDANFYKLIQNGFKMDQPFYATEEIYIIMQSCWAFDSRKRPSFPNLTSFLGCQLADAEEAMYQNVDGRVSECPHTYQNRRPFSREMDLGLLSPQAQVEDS
Text: (§1) Kinase binding data were obtained for various exemplary compounds prepared according to Examples 1-8 using the DiscoverX KINOMEscan® active site-directed competition binding site-directed assay protocol described below. […] As a result, the data report thermodynamic interaction affinities (Kd values), rather than IC50 values that are dependent on ATP concentrations. The assay uses a DNA-tagged version of the protein kinase, and an immobilized ligand bound to a solid support. Compounds that directly or indirectly prevent kinase binding to the immobilized ligand reduce the amount of kinase captured on the solid support, which is detected using an ultra-sensitive qPCR method. Affinity constants reported from the assay have been reported to be independent of the immobilized ligand used that is coupled to the solid support (See supplemental information in Fabian, M. A. et. al., (2005) Nat. Biotechnol. 23, 329-336; Wodicka, L. M. et. al., (2010) Chem. Biol. 17, 1241-1249.)
Kinase-tagged T7 phage strains were prepared in an E. coli host derived from the BL21 strain. E. coli were grown to log-phase and infected with T7 phage and incubated with shaking at 32 °C until lysis. The lysates were centrifuged and filtered to remove cell debris. The remaining kinases were produced in HEK-293 cells and subsequently tagged with DNA for qPCR detection. Streptavidin-coated magnetic beads were treated with biotinylated small molecule ligands for 30 minutes at room temperature to generate affinity resins for kinase assays. The liganded beads were blocked with excess biotin and washed with blocking buffer (SeaBlock (Pierce), 1% BSA, 0.05% Tween 20, 1 mM DTT) to remove unbound ligand and to reduce non-specific binding. […] Test compounds were prepared as 111x stocks in 100% DMSO. Kds were determined using an 11-point 3-fold compound dilution series with three DMSO control points. All compounds for Kd measurements are distributed by acoustic transfer (non-contact dispensing) in 100% DMSO. The compounds were then diluted directly into the assays such that the final concentration of DMSO was 0.9%. All reactions were performed in polypropylene 384-well plates. Each was a final volume of 0.02 mL. The assay plates were incubated at room temperature with shaking for 1 hour and the affinity beads were washed with wash buffer (1×PBS, 0.05% Tween 20). The beads were then re-suspended in elution buffer (1×PBS, 0.05% Tween 20, 0.5 μM nonbiotinylated affinity ligand) and incubated at room temperature with shaking for 30 minutes. The kinase concentration in the eluates was measured by qPCR. Binding constants (Kds) were calculated with a standard dose-response curve using the Hill equation. The Hill Slope was set to −1. Curves were fitted using a non-linear least square fit with the Levenberg-Marquardt algorithm.
as §1, with “9-12” for “1-8”
Kinase-tagged T7 phage strains were prepared in an E. coli host derived from the BL21 strain. […]
With `COc1cn2ncc(-c3nc(N[C@H]4CNCC[C@@H]4F)c(C#N)cc3F)c2nc1C1CC1` [Compound 7, 6-(5-cyclopropyl-6-methoxypyrazolo[1,5-a]pyrimidin-3-yl)-5-fluoro-2-(((3S,4S)-4-fluoropiperidin-3-yl)amino)nicotinonitrile] the Kd was under 0.17 nM. For `COc1cn2ncc(-c3nc(N[C@H]4CNCC[C@@H]4F)c(C#N)cc3F)c2nc1C(C)(C)O` [Compound 10, 5-fluoro-2-(((3S,4S)-4-fluoropiperidin-3-yl)amino)-6-(5-(2-hydroxypropan-2-yl)-6-methoxypyrazolo[1,5-a]pyrimidin-3-yl)nicotinonitrile], the Kd was under 0.17 nM. In the case of `COc1cn2ncc(-c3nc(N[C@H]4CNCC[C@@H]4F)c(F)cc3F)c2nc1C(C)(C)O` [Compound 13, 2-(3-(3,5-difluoro-6-(((3S,4S)-4-fluoropiperidin-3-yl)amino)pyridin-2-yl)-6-methoxypyrazolo[1,5-a]pyrimidin-5-yl)propan-2-ol], the Kd is reported as under 0.17 nM.

Same assay, conditions: Table 18; no ATP
Work on `COc1cn2ncc(-c3nc(N[C@H]4CNCC[C@@H]4F)ncc3F)c2nc1C(C)(C)O` [Compound 6a, 2-(3-(5-fluoro-2-(((3S,4S)-4-fluoropiperidin-3-yl)amino)pyrimidin-4-yl)-6-methoxypyrazolo[1,5-a]pyrimidin-5-yl)propan-2-ol] yielded a Kd of under 0.17 nM. `COc1cn2ncc(-c3ccnc(N[C@H]4CNCC[C@@H]4F)n3)c2nc1C1CC1` [Compound 7a, 4-(5-cyclopropyl-6-methoxypyrazolo[1,5-a]pyrimidin-3-yl)-N-((3S,4S)-4-fluoropiperidin-3-yl)pyrimidin-2-amine] gave a Kd of 0.48 nM. Work on `COc1cn2ncc(-c3cncc(N[C@H]4CNCC[C@@H]4F)n3)c2nc1C1CC1` [Compound 12a, 6-(5-cyclopropyl-6-methoxypyrazolo[1,5-a]pyrimidin-3-yl)-N-((3S,4S)-4-fluoropiperidin-3-yl)pyrazin-2-amine] yielded a Kd of under 0.17 nM. With `COc1cn2ncc(-c3nc(N[C@@H]4CCCNC4)ncc3F)c2nc1C1CC1` [Compound 14a, (R)-4-(5-cyclopropyl-6-methoxypyrazolo[1,5-a]pyrimidin-3-yl)-5-fluoro-N-(piperidin-3-yl)pyrimidin-2-amine] the Kd was under 0.17 nM. `COc1cn2ncc(-c3nc(N[C@H]4CNCC[C@@H]4F)ncc3F)c2nc1C1CC1` [Compound 15a, 4-(5-cyclopropyl-6-methoxypyrazolo[1,5-a]pyrimidin-3-yl)-5-fluoro-N-((3S,4S)-4-fluoropiperidin-3-yl)pyrimidin-2-amine] showed a Kd of 0.28 nM.
